In patent publication US6794402B2, “Bicyclic cyclohexylamines and their use as NMDA receptor antagonists” (Warner-Lambert Company, priority 2000, dated 2004):
pIC50: −log10 of the molar value.

Tests used:
[1] = target: T1, [3H]ifenprodil binding site, rat forebrain membranes (Rattus norvegicus, UniProt P35439+Q00960); assay: [3H]Ifenprodil binding assay; conditions: 4 nM [3H]-ifenprodil, 2 hours at room temperature
T1 construct: membrane fraction was prepared from frozen adult rat forebrains; tissue Zivic-Miller Laboratories, Inc; host or cells: adult rat forebrain, washed buffy coat membrane fraction
Method in brief: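 Washed rat forebrain buffy coat membranes (100-200 μg protein) were incubated with 4 nM [3H]ifenprodil in 20 mM HEPES-KOH pH 7.4 for 2 hours at room temperature, in triplicate, then filtered on PEI-soaked GF/B filters. Nonspecific binding was set with 1 mM ifenprodil. IC50 came from a one- or two-site competition fit.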

[2] = target: NR1A/NR2B NMDA receptor (Rattus norvegicus, UniProt P35439+Q00960); assay: Electrophysiological assay at NMDA receptor subunits expressed in Xenopus oocytes; assay type: cell-based; conditions: cloned rat NR1A/NR2B in Xenopus oocytes, two-electrode voltage clamp, glutamate 100 μM + glycine 1-100 μM; read-out: NR1A/NR2B Oocyte IC50
From the text: Preparation of RNA. cDNA clones encoding the NR1A, NR2A, NR2B, and NR2C rat NMDA receptor subtypes were used (see, Moriyoshi, supra., 1991; Kutsuwada et al., supra., 1992; Monyer et al., supra, 1992; Ikeda et al., FEBS Lett., 1992;313:34-38; Ishii et al., J. Biol. Chem., 1993;268:2836-2843 for details of these clones or their mouse homologs). The clones were transformed into appropriate host bacteria and plasmid preparations were made with conventional DNA purification techniques. A sample of each clone linearized by restriction enzyme digestion […] was synthesized with T3 RNA polymerase. The cRNA was diluted to 400 ng/μL and stored in 1-μL aliquots at −80° C. until injection.
The Xenopus oocyte expression system. Mature female Xenopus laevis were anaesthetized (20-40 minutes) using 0.15% 3-aminobenzoic acid ethyl ester (MS-222), and 2 to 4 ovarian lobes were surgically removed. Oocytes at developmental stages IV-VI (Dumont J. N., J. Morphol., 1972;136:153-180) were dissected from the ovary still surrounded by enveloping ovarian tissues. Follicle-enclosed oocytes were microinjected with 1:1 mixtures of NR1A:NR2A, 2B or 2C; injecting 1 to 10 ng of RNA encoding each receptor subunit. NR1A encoding RNA was injected alone at ˜20 ng. Oocytes were stored in Barth's medium containing (in mM): NaCl, 88; KCl, 1; CaCl2, 0.41; Ca (NO3)2, 0.33; MgSO4, 0.82; NaHCO3, 2.4; HEPES 5; pH 7.4, with 0.11 mg/mL gentamicin sulphate. While oocytes were still surrounded by enveloping ovarian tissues, the Barth's medium was supplemented with 0.1% bovine serum. Oocytes were defolliculated 1 to 2 days following injections by treatment with collagenase (0.5 mg/mL Sigma Type I for 0.5-1 hr)-(Miledi and Woodward, J. Phsyiol., (Lond) 1989;416:601-621) and subsequently stored in serum-free medium.
Electrical recordings were made using a conventional two-electrode voltage clamp (Dagan TEV-200) over periods ranging between 3 to 21 days following injection (Woodward et al., Mol. Pharmacol., 1992;41:89-103). Oocytes were placed in a 0.1-mL recording chamber continuously perfused (5 mL-15 mL min^−1) with frog Ringer's solution containing (in mM): NaCl, 115; KCL, 2; BaCl2, 1.8; HEPES, 5; and pH 7.4. Drugs were applied by bath perfusion. Using oocytes expressing different subunit combinations of NMDA receptor, NMDA currents were activated by co-application of glutamate (100 μM) and glycine (1-100 μM). Inhibitory potency of the novel antagonists was assessed on responses elicited by fixed concentrations of glutamate and glycine, by measuring reductions in current induced by progressively increasing concentrations of antagonist.
Concentration-inhibition curves were fit with Equation 1.
I/Icontrol=1/(1+([antagonist]/10−^pIC50)^n) Eq. 1
In which Icontrol is the current evoked by agonists alone, pIC50=−log IC50, IC50 is the concentration of antagonist that produced half maximal inhibition, and n is the slope factor (De Lean et al., Am. J. Physiol., 1978;235:E97-102). For incomplete curves, analysis by fitting was unreliable and IC50 values were calculated by simple regression over linear portions of the curves (Origin: Microcal Software).

[3] = tested on: 6-Hydroxydopamine-lesioned rats; assay: 6-OHDA lesioned rat assay; assay type: in vivo; conditions: for 6-OHDA MED: minimum effective dose to potentiate contraversive rotation induced by L-DOPA methyl ester 10 mg/kg SC, 6-hour period; for 6-OHDA active/inactive at the given dose: statistically significant increase in contraversive rotations vs L-DOPA only
Description: 6-Hydroxydopamine-lesioned rats were used (see Ungerstedt U., Arbuthnott G. W., Quantitative recording of rotational behavior in rats after 6-hydroxy-dopamine lesions of the nigrostraiatal dopamine system. Brain Res., 1971;24(3):485-93). Adult male Sprague-Dawley rats were anesthetized with chloral hydrate and unilateral lesions of the nigrostriatal dopamine system were accomplished by infusion of 8 μg of 6-hydroxydopamine HBr (6-OHDA) into the right medial forebrain bundle. Rats were pretreated 30 minutes before surgery with desipramine HCl 25 mg/kg intraperitoneally (IP) to protect noradrenegic neurons, and pargyline 25 mg/kg IP to potentiate the effects of 6-OHDA. A minimum of 3 weeks after surgery, the rotational behavior induced by apomorphine HCL 50 μg/kg subcutaneously (SC) was assessed.
Rotational behavior was measured using an automatic rotometer system (Rotorat Rotational Activity System, MED Associates, Georgia, Vt.). Anti-parkinsonian activity was assessed as the ability of the compound to potentiate the contraversive rotation induced by L-DOPA methyl ester, 10 mg/kg SC, over a 6-hour period. Experiments were conducted using a crossover paradigm where each rat received either a vehicle plus L-DOPA, or the test compound plus L-DOPA, in randomized order. Rats were tested at 7-day intervals. In experiments in which the compound was tested orally, rats were food deprived for 16 hours. Statistical analysis between treatment groups were performed using a paired t-test. The results were reported in Table 1 as the minimum effective dose (MED) of compound (mg/kg) required to produce a statistically-significant increase in total contraversive rotations compared to rats receiving L-DOPA only.

T1 sequence (Q00960 27-1482, other chains not shown): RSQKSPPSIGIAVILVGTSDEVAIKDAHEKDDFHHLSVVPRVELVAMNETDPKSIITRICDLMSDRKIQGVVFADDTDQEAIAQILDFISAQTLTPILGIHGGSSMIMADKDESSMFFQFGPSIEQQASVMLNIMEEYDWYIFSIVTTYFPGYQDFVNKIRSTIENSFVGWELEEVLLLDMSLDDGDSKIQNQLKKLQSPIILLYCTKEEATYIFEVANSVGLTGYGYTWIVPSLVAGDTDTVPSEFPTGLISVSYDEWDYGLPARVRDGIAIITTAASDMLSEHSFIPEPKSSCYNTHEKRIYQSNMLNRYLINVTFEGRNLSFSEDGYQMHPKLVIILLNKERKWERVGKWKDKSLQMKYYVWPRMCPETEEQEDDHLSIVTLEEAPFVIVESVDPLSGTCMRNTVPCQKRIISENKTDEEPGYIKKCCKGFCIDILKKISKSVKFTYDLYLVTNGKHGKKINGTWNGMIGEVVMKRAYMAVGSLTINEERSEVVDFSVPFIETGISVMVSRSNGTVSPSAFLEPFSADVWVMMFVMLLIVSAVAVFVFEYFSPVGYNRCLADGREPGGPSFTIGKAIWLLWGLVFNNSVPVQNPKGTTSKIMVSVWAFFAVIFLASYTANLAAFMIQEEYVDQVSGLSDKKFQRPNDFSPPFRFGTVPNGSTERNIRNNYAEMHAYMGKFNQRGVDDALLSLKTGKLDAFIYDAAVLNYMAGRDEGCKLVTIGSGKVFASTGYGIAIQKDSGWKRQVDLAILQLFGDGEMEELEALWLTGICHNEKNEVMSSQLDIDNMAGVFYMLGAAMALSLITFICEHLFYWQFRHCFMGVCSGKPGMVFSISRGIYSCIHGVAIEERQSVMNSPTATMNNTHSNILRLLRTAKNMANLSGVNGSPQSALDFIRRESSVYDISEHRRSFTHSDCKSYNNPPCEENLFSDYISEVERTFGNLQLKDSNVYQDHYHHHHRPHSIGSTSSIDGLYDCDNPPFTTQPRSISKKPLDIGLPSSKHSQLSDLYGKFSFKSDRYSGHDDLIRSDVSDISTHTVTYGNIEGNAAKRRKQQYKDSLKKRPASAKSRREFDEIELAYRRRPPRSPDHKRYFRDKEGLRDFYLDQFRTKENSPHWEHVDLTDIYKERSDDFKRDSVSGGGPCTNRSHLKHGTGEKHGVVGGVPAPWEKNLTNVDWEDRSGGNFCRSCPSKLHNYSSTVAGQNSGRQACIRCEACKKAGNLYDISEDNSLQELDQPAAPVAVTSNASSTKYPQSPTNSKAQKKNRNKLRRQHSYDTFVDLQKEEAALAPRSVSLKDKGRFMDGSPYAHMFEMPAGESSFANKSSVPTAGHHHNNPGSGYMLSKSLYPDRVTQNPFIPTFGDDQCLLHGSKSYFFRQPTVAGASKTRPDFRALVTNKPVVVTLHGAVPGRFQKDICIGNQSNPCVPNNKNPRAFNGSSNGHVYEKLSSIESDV
NR1A/NR2B NMDA receptor, sequence (Q00960 27-1482, other chains not shown): as above

Compound	pIC50 [1]	melting point [°C]	pIC50 [2]	6-OHDA MED [3] [mg/kg]	6-OHDA active/inactive at the given dose [3]
O=c1[nH]c2ccc([C@H]3CC[C@H](NCCOc4ccc(F)cc4)CC3)cc2o1 [Example 2, 6-{trans-4-[2-(4-Fluorophenoxy)ethylamino]cyclohexyl}-3H-benzoxazol-2-one]	7.40	172 to 176	7.00	10.0	active
O=c1[nH]c2ccc([C@H]3CC[C@H](NCCCc4ccccc4)CC3)cc2o1 [Example 1, 6-[trans-4-(3-Phenylpropylamino)cyclohexyl]-3H-benzoxazol-2-one]	8.40	166 to 170	7.52	30	active
CN(CCCc1ccc(F)cc1)[C@H]1CC[C@H](c2ccc3[nH]c(=O)oc3c2)CC1 [Example 18, 6-(trans-4-{[3-(4-Fluorophenyl)propyl]methylaamino}cyclohexyl)-3H-benzoxazol-2-one]	8.05	62 to 65	7.19	10	active
O=c1[nH]c2ccc([C@H]3CC[C@H](NCCOc4ccccc4)CC3)cc2o1 [Example 3, 6-[trans-4-(2-Phenoxyethylamino)cyclohexyl]-3H-benzoxazol-2-one]	–	159 to 162	7.00	10.0	active
